{"source": "patent EP0968998A1", "about": "“Cosmetic compositions, ceramide analogues with anti-elastase activity and process for their preparation” (ELF ATOCHEM S.A., priority 1998, dated 2000)", "test_system": "stratum corneum", "test": "Skin barrier improvement: transepidermal (insensible) water loss (PIE), Servomed evaporimeter, cream applied to inner forearm", "type": "in vivo, volontaires sains ayant une peau sèche", "conditions": "cream with 0,5 % (ex. 7, témoins), 1 % (ex. 4, 8), 5 % (ex. 6)", "text": "Les exemples qui suivent permettent d'illustrer l'invention. […] Les valeurs sont exprimées en nombre d'onde par centimètre. - Résonance magnétique nucléaire (RMN) Les spectres sont réalisés au moyen d'un appareil BRUCKER DRX 500, à 500 MHz (^1H) et 125 MHz (^13C) dans le DMSO-d6. La calibration de l'appareil est effectuée au moyen de DMSO. Les déplacements chimiques sont exprimés en ppm. […] On utilise le N-succinyl-(Ala)3-p-nitroanilide en solution dans le tétrahydrofurane et une solution d'élastase à 100 mg/ml dans un mélange de glycérol et de tampon acétate de sodium (50/50; v/v), pH5. L'activité de l'enzyme est mesurée à 37°C dans 100 mM de tampon Tris-HCI, pH8 contenant 0,01 % de Triton X-100 (volume/volume) et 0,02 % d'azide de sodium (poids/volume). Le céramide à tester, solubilisé dans le tétrahydrofurane (concentration en THF = 0,5 % en volume) est préincubé en présence de l'enzyme (0,05 mg/ml) dans le tampon pendant 5 minutes à 37°C. On ajoute le N-succinyl-(Ala)3-p-nitroanilide (concentration finale : 250 µM) et on mesure la libération de la p-nitroaniline dans une cuve en quartz par spectrophotométrie à 410 nm. La capacité inhibitrice du céramide est exprimée en pourcentage d'inhibition (% I) selon la relation : %I = (1 -(Vi)/(Vo))×100 [formula] dans laquelle Vi et Vo sont les vitesses d'apparition de la p-nitroaniline en présence et en absence d'inhibiteur respectivement. - Mesure de l'amélioration de la barrière cutanée a) mesure de la Perte Insensible en Eau (PIE) La mesure de la PIE permet de quantifier la très faible quantité d'eau qui diffuse passivement à travers le stratum corneum. Ce paramètre représente un très bon index de la fonction barrière du stratum corneum. Cette méthode est surtout utilisée pour contrôler l'efficacité de formules cosmétiques qui, contenant certains types de lipides sont capables de diminuer la PIE et, en conséquence, d'empêcher la déshydratation du stratum corneum. La sonde est laissée en contact de la peau pendant 2 minutes environ de façon à atteindre une position d'équilibre. PIE = D'(dP)/(dx)(gradient de pression de vapeur) [formula] Les valeurs sont exprimées en g/m^2/heure et permettent de calculer un delta de PIE = PIE (peau traitée) - PIE (peau témoin). L'appareil utilisé est un Evaporimètre EPI de Servomed. Les mesures sont effectuées sur deux groupes de 15 volontaires sains ayant une peau sèche, avant l'application du produit (t=0) et après l'application (t=0,5 heure, 1 heure, 3 heures et 6 heures) sur la face interne des deux avant-bras. L'analogue de céramide selon l'invention ou le céramide témoin est incorporé dans une crème ayant la composition suivante (en % en poids) :\nLa teneur en analogue de céramide dans la crème est égale à 0,5 % (exemple 7), 1 % (exemples 4 et 8) et 5 % (exemple 6), et celle des céramides témoins (a) et (b) est égale à 0,5 %. La diminution des valeurs de PIE signifie une amélioration de la qualité de la barrière cutanée qui traduit un meilleur pouvoir retentionnel de l'eau au niveau de la couche cornée et donc une meilleure hydratation. b) hydratation cutanée L'eau peut être considérée comme un dipôle électrique capable de conduire l'électricité. Le transport d'électricité dans un champ donné est proportionnel à la quantité d'eau présente dans le stratum corneum. Plus une peau est riche en eau et plus le courant électrique passe rapidement entre 2 électrodes. Il existe donc un lien entre l'hydratation du stratum corneum et les modifications des propriétés électriques. Les mesures de capacitance, liée à la constante diélectrique de la peau, sont réalisées par le Cornéomètre Courage+Khazaka CM 200, dont la sonde présente une surface de contact avec la peau de 49 mm^2; cette sonde est appliquée avec une pression constante sur la surface cutanée à mesurer, et l'indice d'hydratation directement proportionnel au taux hydrique de surface est instantané."}
{"smiles": "CCCCCCCCCCCCCCCCCC(=O)NC(CC)(CO)COC(=O)CCCCCCCCCCCCCCCCC", "note": "(centres unmarked) [Exemple 4, 1-stéaroyl-2-éthyl-2-stéaroylamino-1,3-propanediol]", "values": [{"measurement": "Perte Insensible en Eau (PIE) M±s", "setting": "t=0,5 heure after application", "value": "3,89±0,85 g/m^2/heure"}, {"measurement": "Perte Insensible en Eau (PIE) M±s", "setting": "t=0 heure (before application, baseline)", "value": "4,52±0,79 g/m^2/heure"}, {"measurement": "Perte Insensible en Eau (PIE) M±s", "setting": "t=1 heure after application", "value": "2,95±1,15 g/m^2/heure"}, {"measurement": "Perte Insensible en Eau (PIE) M±s", "setting": "t=3 heures after application", "value": "4,30±0,97 g/m^2/heure"}, {"measurement": "Perte Insensible en Eau (PIE) M±s", "setting": "t=6 heures after application", "value": "4,00±1,24 g/m^2/heure"}]}
